According to patent publication US7501428B2, “Quinazoline thiazolinones” (Hoffmann-La Roche Inc., priority 2004, dated 2009):
pKi: −log10 of the molar value.

target: T1, recombinant human CDK1/Cyclin B complex (Homo sapiens, UniProt P06493); test: CDK1/Cyclin B kinase assay (FlashPlate or HTRF); assay type: biochemical; details: Rb protein substrate, Ki=IC50/(1+[S]/Km)
T1 construct: made in house; host or cells: High Five insect cells (baculovirus) for CDK1/GST-cyclin B; M15 E. coli for the Rb substrate
Protocol: To determine inhibition of CDK1 activity, either FlashPlate™ (NEN™-Life Science Products) assay or HTRF assay was performed. Both types of kinase assays were carried out using recombinant human CDK1/Cyclin B complex. GST-cyclinB (GST-cycB) and CDK1 cDNA clones in baculovirus vectors were provided by Dr. W. Harper at the Baylor College of Medicine, Houston, Tex. Proteins were co-expressed in High Five™ insect cells and the complex was purified on glutathione Sepharose resin (Pharmacia, Piscataway, N.J.) as previously described (Harper, J. W. et al. Cell 1993, 75, 805-816). A 6×-Histidine tagged truncated form of retinoblastoma (Rb) protein (amino acid 386-928) was used as the substrate for the CDK1/Cyclin B assay (the expression plasmid was provided by Dr. Veronica Sullivan, Department of Molecular Virology, Roche Research Centre, Welwyn Garden City, United Kingdom). The Rb protein is a natural substrate for phosphorylation by CDK1 (see Herwig and Strauss Eur. J. Biochem. Vol. 246 (1997) pp. 581-601 and the references cited therein). The expression of the 62Kd protein was under the control of an IPTG inducible promoter in an M15 E. coli strain. Cells were lysed by sonication and purification was carried out by binding lysates at pH 8.0 to a Ni-chelated agarose column pretreated with 1 mM imidazole. The resin was then washed several times with incrementally decreasing pH buffers to pH 6.0, and eluted with 500 mM imidazole. Eluted protein was dialyzed against 20 mM HEPES pH 7.5, 30% glycerol, 200 mM NaCl, and 1 mM DTT. Purified Rb fusion protein stocks were quantitated for protein concentration, aliquoted, and stored at −70° C.
For the FlashPlate kinase assay, 96-well FlashPlates were coated with Rb protein at 10 μg/ml, using 100 μl per well. Plates were incubated at 4° C. overnight or at room temperature for 3 hours on a shaker. […] Plates were washed four times with the wash buffer, sealed, and counted on the TopCount scintillation counter (Packard Instrument Co., Downers Grove, Ill.]. The percent inhibition of Rb phosphorylation, which is a measure of the inhibition of CDK activity, was determined according to the following formula:
[formula] where “test compound” refers to the average counts per minute of the test duplicates, “nonspecific” refers to the average counts per minute when no CDK1/Cyclin B, etc., was added, and “total” refers to the average counts per minute when no compound was added. […] The value of the inhibitor constant Ki is calculated by the following: Ki=IC50/(1+[S]/Km), where [S] is the ATP concentration and Km is Michaelis constant.
The Homogeneous Time Resolved Fluorescence (HTRF) kinase assay was carried out in 96-well polypropylene plates (BD Biosciences, Bedford, Mass.). […]

T1 sequence (P06493 whole entry): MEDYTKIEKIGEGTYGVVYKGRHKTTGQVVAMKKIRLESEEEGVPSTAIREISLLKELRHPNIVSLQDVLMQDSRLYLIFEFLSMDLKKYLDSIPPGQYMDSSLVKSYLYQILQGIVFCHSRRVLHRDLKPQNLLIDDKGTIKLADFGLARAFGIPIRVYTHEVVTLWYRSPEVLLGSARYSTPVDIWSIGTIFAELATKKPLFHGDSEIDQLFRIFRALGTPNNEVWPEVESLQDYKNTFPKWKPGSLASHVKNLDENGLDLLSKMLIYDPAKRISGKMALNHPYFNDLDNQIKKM
T1 sequence (P14635 whole entry partner): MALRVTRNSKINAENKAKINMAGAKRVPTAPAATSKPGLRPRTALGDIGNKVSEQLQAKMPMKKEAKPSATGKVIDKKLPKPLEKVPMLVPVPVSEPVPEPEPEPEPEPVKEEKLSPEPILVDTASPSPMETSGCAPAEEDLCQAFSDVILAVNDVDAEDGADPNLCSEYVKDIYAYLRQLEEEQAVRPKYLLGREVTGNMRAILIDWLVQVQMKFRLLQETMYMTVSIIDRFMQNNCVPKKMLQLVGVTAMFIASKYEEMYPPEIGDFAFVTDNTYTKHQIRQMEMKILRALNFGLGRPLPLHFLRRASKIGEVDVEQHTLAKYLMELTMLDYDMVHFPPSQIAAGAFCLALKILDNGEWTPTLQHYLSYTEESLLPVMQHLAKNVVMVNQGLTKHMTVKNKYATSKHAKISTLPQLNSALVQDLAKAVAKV

| pKi | SMILES |
| --- | --- |
| 5.91 | O=C1N=C(NCc2cccs2)S/C1=C\c1ccc2ncncc2c1 [Example 1, 5-[1-Quinazolin-6-yl-meth-(Z)-ylidene]-2-[(thiophen-2-ylmethyl)-amino]-thiazol-4-one] |
| 6.06 | O=C1N=C(NCCc2cccc(F)c2)S/C1=C\c1ccc2ncncc2c1 [Example 3, 2-[2-(3-Fluoro-phenyl)-ethylamino]-5-[1-quinazolin-6-yl-meth-(Z)-ylidene]-thiazol-4-one] |
| 5.74 | COc1cc(F)ccc1NC1=NC(=O)/C(=C/c2ccc3ncncc3c2)S1 [Example 5, 2-(4-Fluoro-2-methoxy-phenylamino)-5-[1-quinazolin-6-yl-meth-(Z)-ylidene]-thiazol-4-one] |
| 5.95 | O=C1N=C(N[C@@H](CO)Cc2ccccc2)S/C1=C\c1ccc2ncncc2c1 [Example 7, 2-((R)-1-Hydroxymethyl-2-phenyl-ethylamino)-5-[1-quinazolin-6-yl-meth-(Z)-ylidene]-thiazol-4-one] |
